Assay results reported in patent US20220356170A1, “SREBP INHIBITOR COMPRISING A THIOPHENE CENTRAL RING” (Capulus Therapeutics, LLC, priority 2019, published 2022).
Converted amounts (≈) assume the structure as drawn.

Experiments:
[1] = Kinetic solubility; assay type: physicochemical; settings: aqueous buffer, kinetic from dmso stock, pH 7.4 buffer, room temperature, 1.0% DMSO
Method: Kinetic Solubility Procedure: A 10 mM stock solution of Compound 1 was prepared in DMSO, then 4 μL of the stock was added to a deep well plate containing 396 μL of pH 7.4 buffer. The sample plate was vortexed at 800 rpm for 24 h on thermomixer at room temperature. The plate was sealed well during the incubation process. The DMSO content in the sample was 1.0%. The concentration of Compound 1 in the final incubation was 100 μM. At the end of the incubation period, the sample plate was centrifuged at 4000 rpm for 10 min and analyzed in LC-UV against a calibration curve (CC).

[2] = tested on: 22RV1; test: Cancer cell growth inhibition, Sulforhodamine B; assay type: cell-based; settings: Homo sapiens; 22RV1 (prostate), 72 hr; Responder Cell Lines
Method: (§1) The ability of select compounds to inhibit cell growth in various cancer cell lines are evaluated. […] The cell lines shown in Table 5 have reduced growth by at least 50% at 10 uM or lower over 72 hr treatment in growth media. The cell lines shown in Table 6 have reduced growth by at least 50% with an IC50 greater than 10 uM.
(§2) Six 10-fold compound dilutions are prepared in DMSO (e.g. 10 mM, 1 mM, 100 uM, 10 uM, 1 uM, and 0.1 uM). Single data points are acquired for each concentration. The final concentration of DMSO is 0.1%. The duration of the treatment is 72 hr. Growth inhibition is measured using Sulforhodamine B in a protein staining assay. Activity of the agents is determined by evaluation the following parameters: IC50, GI50, IC10, TGI, LC50, IC90, and GI90 (where these values can be calculated).

[3] = tested on: A549; test: Cancer cell growth inhibition, Sulforhodamine B; assay type: cell-based; settings: Homo sapiens; A549 (lung), 72 hr; Responder Cell Lines
Method: as §1, §2

[4] = tested on: K-562; test: Cancer cell growth inhibition, Sulforhodamine B; assay type: cell-based; settings: Homo sapiens, K562; K-562 (hematological), 72 hr; Responder Cell Lines
Method: as §1, §2

[5] = tested on: OVCAR3; test: Cancer cell growth inhibition, Sulforhodamine B; assay type: cell-based; settings: Homo sapiens, OVCAR-3, 72 h, OVCAR3 (ovary)
Method: as §1, §2

[6] = tested on: HT1080; test: Cancer cell growth inhibition, Sulforhodamine B; assay type: cell-based; settings: Homo sapiens, HT-1080; HT1080 (connective tissue), 72 hr; Responder Cell Lines
Method: as §1, §2

[7] = tested on: PC3; test: Cancer cell growth inhibition, Sulforhodamine B; assay type: cell-based; settings: Homo sapiens, PC-3; PC3 (prostate), 72 hr; Non-Responder Cell Lines with IC50 >10 uM or Not Determined
Method: as §1, §2

[8] = tested on: PANC1; test: Cancer cell growth inhibition, Sulforhodamine B; assay type: cell-based; settings: Homo sapiens, PANC-1; PANC1 (pancreas), 72 hr; Non-Responder Cell Lines with IC50 >10 uM or Not Determined
Method: as §1, §2

[9] = tested on: MHHES1; test: Cancer cell growth inhibition, Sulforhodamine B; assay type: cell-based; settings: Homo sapiens, MHH-ES-1, 72 h
Method: as §1, §2

[10] = tested on: OVCAR4; test: Cancer cell growth inhibition, Sulforhodamine B; assay type: cell-based; settings: Homo sapiens, OVCAR-4; OVCAR4 (ovary), 72 hr; Non-Responder Cell Lines with IC50 >10 uM or Not Determined
Method: as §1, §2

[11] = tested on: NCIH460; test: Cancer cell growth inhibition, Sulforhodamine B; assay type: cell-based; settings: Homo sapiens, NCI-H460; NCIH460 (lung), 72 hr; Non-Responder Cell Lines with IC50 >10 uM or Not Determined
Method: as §1, §2

[12] = Half-life in mouse liver microsomes; assay type: in vitro ADME; settings: read-out: Mouse LM: Half life
Method: Half-life Human Microsomes: Compound 1 was evaluated for stability in human liver microsomes. A 10 mM stock solution of Compound 1 was prepared in DMSO and diluted with water: acetonitrile (1:1) to a concentration of 1 mM. A working concentration of 100 μM was prepared by further dilution with water: acetonitrile (1:1). To make the preincubation mixture, 2.5 μL of the diluted Compound 1 was combined with 75 μL of human liver microsomes at 3.33 mg/mL, and 85 μL of 100 mM potassium phosphate buffer, and this mixture pre-incubated for 10 min at 37° C. To make the 60 minute mixture without cofactor, 32.5 μL of the preincubation mixture was combined with 17.5 μL of 100 mM potassium phosphate buffer and incubated for 60 min at 37° C. […] To prepare the sample mixture to be evaluated, 25 μL incubation mixture was combined with 200 μL of acetonitrile containing internal standard and vortexed for 5 min at 1200 rpm, then centrifuged for 10 min at 4000 rpm. […] The sample mixture was evaluated by LC-MS/MS using 10 mM ammonium acetate with 0.1% FA as the aqueous mobile phase, and methanol as the organic mobile phase.
Half-life Rat and Mouse Microsomes: Compound 1 was evaluated in rat and mouse liver microsomes following a similar procedure as described above for human liver microsomes.

[13] = tested on: SREBP Target Gene in HepG2 cells; test: Q-PCR analysis of SREBP target gene expression; assay type: cell-based; settings: 500 nM, 48 hour
Method: The effect of Compound 1 on the gene expression of HepG2 cells was evaluated.
HepG2 cells (P2) were seeded in 24 well plate (80,000 cells/ well) for RNA extraction and in a 96 well plate (10,000 cells/ well) for Cell Titer Glow (CTG). The media used was DMEM and contained 10% FBS. Compound 1 was evaluated at […] for 48 hours. Two biological replicates per experimental group were evaluated for RNA, and 3 biological replicates per experimental group analyzed with CTG.
For gene analysis RNA was harvested with RNEasy kit and 20-100 ng used to synthesize cDNA with random primers. Quantitative PCR was performed on 1 pg to 100 ng cDNA for the following genes: ACACA, ACLY, FASN, LSS, PNPLA3. Gene expression levels were determined using […] comparing treated to mock or vehicle treated cells as a baseline.

[14] = treated compared to mock or vehicle treated cells as baseline

solubility kinetic at 24 h [1]: 37 µM (≈ 16.9 µg/mL) | IC50 [2]: < 10 µM | IC50 [3]: < 10 µM | IC50 [4]: < 10 µM | IC50 ([5]; Non-Responder Cell Lines with IC50 >10 uM or Not Determined): > 10 µM | IC50 ([5]; Responder Cell Lines): < 10 µM | IC50 [6]: < 10 µM | IC50 [7]: > 10 µM | IC50 [8]: > 10 µM | IC50 ([9]; MHHES1 (bone), Non-Responder Cell Lines with IC50 >10 uM or Not Determined): > 10 µM | IC50 ([9]; MHHESI (bone), Responder Cell Lines): < 10 µM | IC50 [10]: > 10 µM | IC50 [11]: > 10 µM | half-life at 1 µM [12]: 2 h
Structure (SMILES): CC(C)(O)c1cc(-c2csc(-c3ccc(C(=O)N4CCC(O)CC4)cc3Cl)c2)ccn1 [Compound 1, (3-chloro-4-(4-(2-(2-hydroxypropan-2-yl)pyridin-4-yl)thiophen-2-yl)phenyl)(4-hydroxypiperidin-1-yl)methanone]
Total Gene Average ([13]; average of ACACA, ACLY, FASN, LSS, PNPLA3): 0.467 | ACACA gene expression (Q-PCR) [13, 14]: 0.648 | ACLY gene expression (Q-PCR) [13, 14]: 0.663 | FASN gene expression (Q-PCR) [13, 14]: 0.542 | LSS gene expression (Q-PCR) [13, 14]: 0.295 | PNPLA3 gene expression (Q-PCR) [13, 14]: 0.187
